According to patent US20240125775A1, “IMMOBILIZATION AND MAGNETIC EXTRACTION OF PATHOGENS AND PATHOGEN COMPONENTS” (priority 2020, published 2024):
“Also recorded” adds a separate entry of the source. Ends that are not written are not given here.

How the values were obtained:
[1] = tested on: lipoteichonic acids (LTA); assay: Binding of LTA in aqueous Ringer' solution; conditions: 0.3 mg Fe/ml, 2.5 ng/ml LTA; for LTA bound: 5 minutes at 37° C., magnet 3 minutes
Protocol: The binding of a further relevant toxin (from gram-positive bacteria) was also investigated with the improved particles as disclosed herein, which was not described in Karawacka et al. (2018). These experiments were performed in aqueous Ringer' solution. […] For this experiment, 2.5 ng/ml LTA were used and incubated for 5 minutes at 37° C. on a shaker at 700 rpm. Subsequently, the particles were separated magnetically for 3 minutes. […] SPION^APTES-SBA-SPP04/SPION^APTES-SBA-SPP19 could bind 0.75 ng/ml LTA and 0.97 ng/ml, respectively. Thus, a reduction of LTA by 30% and 29%, respectively, could be detected by using the improved particles SPION^APTES-SBA-SPP04/SPION^APTES-SBA-SPP19 as disclosed herein.

Pseudomonas aeruginosa = assay: Depletion of Pseudomonas aeruginosa from aqueous medium; format: cell-based; conditions: from 5320 CFU/ml, 0.3 mg Fe/ml
Protocol: (§1) Analogous observations are shown in FIG. 13 for the gram negative bacterium Pseudomonas aeruginosa reduction from 5320 CFU/ml to 2 CFU/ml for SPION^APTES-SBA-SPP04 and 7 CFU/ml for SPION^APTES-SBA-SPP19 could be achieved. For Serratia marcescens (gram−) a reduction from 1300 CFU/ml to 26 CFU/ml for SPION^APTES-SBA-SPP04 could be achieved as shown in FIG. 14. Redispersed particles that were plated out yielding a recovery of 1227 CFU/ml for SPION^APTES-SBA-SPP04, which is similar to the positive control.

Staphylococcus aureus = assay: Depletion of Staphylococcus aureus from aqueous medium; format: cell-based; conditions: for Staphylococcus aureus after separation: from 1393 CFU/ml, 0.3 mg Fe/ml, Ringer's solution; for CFU of re-plated bacteria loaded particles: re-plating, S. aureus
Source text: For testing the separation of S. aureus from a sample, particles were functionalized with the peptides SPP04 and SPP19 for this experiment. The bacterial suspension was adjusted to an OD (measured at 600 nm) of 0.13 and then diluted 1:800 with Ringer's solution. […] It could also be shown that the particles have no toxic effect on the bacteria. For Staphylococcus aureus (gram+) a reduction from 1393 CFU/ml to 27 CFU/ml for SPION^APTES-SBA-SPP04 and 73 CFU/ml for SPION^APTES-SBA-SPP19 could be achieved by separation as shown in FIG. 12.

[2] = Separation of micromer^LPS (artificial gram-negative bacteria); conditions: initial 0.1 mg/ml micromer^LPS, 1 mg/ml Fe, 2 h, OD 620 nm
Protocol: For a better understanding of the separation process, the inventors tried to remove artificial micromers to simulate bacteria. For this, LPS coated polystyrene/polymethacrylate Micromer® particles (micromer^LPS) were used and removed from a water suspension instead of living bacteria. […] This experiment was performed by optical density measurements at 620 nm, as it is done for actual bacteria.
For this experiment micromer® particles (micromer) were incubated with endotoxin to receive endotoxin coated micromer particles (micromer^LPS). Any other polymeric particles of similar size could have been used as an alternative. It has been reported, that endotoxins stick to surfaces and can be attached to polymeric particles. Therefore, particles bearing 1 mg particles/ml was incubated with 1 μg/ml endotoxin LPS3 for 2 h at 1400 rpm. After centrifugation the particles were washed several times.
SPION^APTES-SBA-SPP04 and unmodified SPION^HAp with a Fe concentration of 1 mg/ml were incubated with 0.1 mg micromer^LPS for 2 h at 1400 rpm and 37° ° C. SPION^APTES served as a control. A calibration curve was prepared with different concentrations of micromer^LPS. The calibration samples and the magnetically decanted supernatants were measured in the reader at 620 nm absorption wavelength like it is used for the OD measurements of bacteria (Brenner et al. 2005 and Chen et al. 2011). […]

[3] = tested on: LPS (E. coli LPS O55:B5, O26:B6, O111:B4); assay: LPS (endotoxin) binding, EndoZyme Recombinant Factor C Assay; conditions: 10 EU/ml LPS
Protocol: In order to evaluate general parameters of the concentration and incubation time with SPIONs, the inventors analysed conditions that are representative for these parameters. A high and a low particle concentration, as well as two exposure conditions were tested (agitation for 30 sec and 3 sec; particle concentration of 0.01 mg Fe/ml and 1 mg Fe/ml) were tested with the peptide exposing SPION^APTES-SBA-SPP04 and non-peptide exposing SPION^HAP. The concentration of peptide for the functionalized particles was assumed to be 0.08 μmol peptide/mg Fe, as assessed above. As other particles have been reported to bind certain amounts of LPS unspecifically, SPION^HAp are interesting for our experiments concerning this concern as a control.
Binding studies of endotoxin were performed with EndoZyme Recombinant Factor C Assay kit (Hyglos, Germany). In this kit, LPS is detected by recombinant Factor C, thus excluding possible interferences by p-glucans. Calibration curves for the three different LPSs have been prepared in endotoxin free water. SPION^APTES-SBA-SPP04 was used in this study as its efficacy has been described previously. For this experiment, we used two different iron concentrations (1 mg Fe/ml and 0.01 mg Fe/ml) and two incubation parameters (30 s at 1400 rpm and 37° C. as well as 3 s at RT). Three different LPSs were added to 200 μl of the different particle dispersions. The final concentration of LPS was set to 10 EU/ml in each tested sample. Spiking controls (8 and 5 EU/ml) were carried out to see if any interference occurred for all tested particles.
Supernatants were produced using a neodymium magnet (310 mT at separation side) for three minutes. 50 μl of each supernatant were mixed with 50 μl of the assay reagent (80% v/v assay buffer, 10% v/v substrate, 10% v/v enzyme) in black, endotoxin-free 96-well plates. The reaction was monitored for 90 minutes at 37° C. in 15 min intervals by recording the fluorescence at an excitation wavelength of 360 nm and an emission at 465 nm in a Filter-Max F5 Plate reader (Molecular Devices).

[4] = Hydrodynamic particle size (dynamic light scattering); format: physicochemical; conditions: neutral pH (e.g. around 7)
Protocol: Dynamic light scattering (DLS) was performed with a Zetasizer Nano ZS (Malvern Panalytical, Almelo, Netherlands) to determine the hydrodynamic particle size of the NP at 25° C.in water (refractive index 1.33; viscosity 0.8872 mPa-s; backscattering mode at 173°). The same device was used to measure the particle's aqueous zeta potential with 78.5 as dielectric constant. Measurements were done in triplicate at an iron concentration of 50 μg/ml and pH of 7.4, the results were averaged.

E. coli [5] = assay: Separation of E. coli from blood; format: cell-based
Protocol: For this experiment, E. coli was added to blood and then 0.3 mg Fe/ml particles were used to extract/separate the bacteria. Thus, the remaining bacterial load in the blood was tested as a first aspect of this experiment. Furthermore, citrate and EDTA-stabilized blood was used and compared, as EDTA is expected to hinder the binding of the peptide to the bacteria. Therefore, the depletion of bacteria is expected to be lower in EDTA-stabilized blood compared to citrate-stabilized blood. The overall bacterial load in citrate stabilized blood amounted to 1913 colony forming units per milliliter (CFU/ml) (FIG. 15). SPION^APTES-SBA-SPP04 particles reduced the concentration to 927 CFU/ml in citrate-stabilized blood. […] For completeness, in EDTA-stabilized blood, the amount of CFUs was reduced from 2867 CFU/ml to 1733 CFU/ml by SPION^APTES-SBA-SPP04. Thus, a reduction of around 40% was achieved.
In this experiment we used blood from health volunteers and added an amount of bacteria to it. A concentration of 0.3 mg Fe/ml was used for the particles. To 0.8 ml of blood, (citrate or EDTA stabilized) 0.1 bacteria suspension in Ringer's solution have been added. After 5 min. of incubation, 0.1 ml of particles (3 mg Fe/ml) in Ringer's solution have been added. Samples were incubated for 5 minutes on a shaker at 700 rpm. After incubation, the particles have been removed by placing a magnet (310 mT) behind the samples. After 3 min separation of the particles the supernatant were plated out. As a negative control only 0.2 ml Ringer's solution was added to blood. The positive control consisted of 0.8 ml blood and 0.1 ml bacteria suspension and another 0.1 ml Ringer's solution. In addition the particles were washed one time after separation and then redispersed in Ringer's solution and plated out.
After 16 h of incubation, the CFUs (colony forming units) on the plates have been counted. The samples have been compared to the amount found in the positive control.

E. coli [6] = assay: Magnetic separation of E. coli from aqueous medium (Ringer solution); format: cell-based; conditions: 5 minutes incubation, 3 minutes separation
Protocol: E. coli were incubated with particles for 5 minutes and then separated for 3 minutes. Supernatants were plated out. […] A reduction of the particle amount to 0.1 mg Fe/ml led to a reduced bacterial separation 170 CFUS).

Serratia marcescens = assay: Depletion of Serratia marcescens from aqueous medium; format: cell-based
Protocol: as §1

bacteria = assay: Concentration of viable bacteria (10 ml sample, plating); format: cell-based; conditions: 0.3 mg Fe/ml, 30 minutes, 310 mT 3 minutes, 10 ml to 0.5 ml
Protocol: In this experiment, an approach as used with common blood cultures in order to identify pathogens was chosen. The total volume was set to 10 ml. The bacterial suspension was adjusted to an OD (measured at 600 nm) of 0.13 with Ringer's solution analogous to the previous experiments. A sample, which was not treated with SPIONs, served as a control. A concentration of 0.3 mg Fe/ml SPION^APTES-SBA-SPP04 was used. Incubation was performed for 30 minutes at room temperature on a rolling incubator. The particles were then magnetically separated for 3 minutes at 310 mT. 0.5 ml Ringer's solution was added to the particle pellets and vortexed. […] A total of 50 μl was plated out for each sample. […] Compared to common blood cultures, bacterial pathogens can be detected faster by using this method, because the amplification step of the bacteria using blood culture bottles could be omitted.

## SPION^APTES-SBA-SPP19: APTES-coated SPIONs linked via SBA to peptide SPP19 (SEQ ID NO: 2) (RKQGRVEILYRGSWGTVC; also: conjugated via SBA linker to APTES-coated SPIONs)
[1]
  reduction of LTA: 29%
  LTA bound: 0.97 ng/mL
Pseudomonas aeruginosa
  Pseudomonas aeruginosa after separation: 7 CFU/ml
Staphylococcus aureus
  Staphylococcus aureus after separation: 73 CFU/ml
  CFU of re-plated bacteria loaded particles: in the range of the positive control

## SPION^APTES-SBA-SPP04: APTES-coated SPIONs linked via SBA to peptide SPP04 (SEQ ID NO: 1) (RKQGRVEVLYRASWGTVC; also: conjugated via SBA linker to APTES-coated SPIONs)
[1]
  reduction of LTA: 30%
  LTA bound: 0.75 ng/mL
[2]
  remaining micromer^LPS: 0.023 mg/mL
[3]; 0.01 mg Fe/ml (FIG. 8C, D)
  binding of LPS: about 50%
[3]; 0.01 mg Fe/ml, 3 seconds
  reduction / binding of LPS, all LPS types: at least 40%
[3]; 0.01 mg Fe/ml, 30 seconds
  reduction of LPS, all three LPS types: at least 48%
[3]; 1 mg Fe/ml, 3 s
  LPS bound: 94%
  remaining LPS: up to 6%
[3]; 1 mg Fe/ml, 30 s of agitation
  LPS removal: completely removed the LPS below the detection limit; also recorded: completely removed the endotoxin below the detection limit
[4]
  particle diameter after functionalization with peptide: 2.54 μm
E. coli [5]; EDTA-stabilized blood
  replating of extracted bacteria: 1066 CFU/ml
E. coli [5]; EDTA-stabilized blood, 0.3 mg Fe/ml
  reduction of bacterial load: around 40%
E. coli [5]; EDTA-stabilized blood, from 2867 CFU/ml, 0.3 mg Fe/ml
  E. coli remaining in blood: 1733 CFU/ml
E. coli [5]; citrate-stabilized blood
  replating of extracted bacteria: 913 CFU/ml
E. coli [5]; citrate-stabilized blood, from 1913 CFU/ml, 0.3 mg Fe/ml
  E. coli remaining in blood: 927 CFU/ml
E. coli [6]; 0.1 mg Fe/ml
  E. coli in supernatant: 170 CFUs
E. coli [6]; 1.0 mg Fe/ml
  E. coli in supernatant: 2 CFU/ml
Serratia marcescens; from 1300 CFU/ml, 0.3 mg Fe/ml
  Serratia marcescens after separation: 26 CFU/ml
Serratia marcescens; re-plating, Serratia marcescens
  recovery from redispersed, plated particles: 1227 CFU/ml
Pseudomonas aeruginosa
  Pseudomonas aeruginosa after separation: 2 CFU/ml
bacteria
  plating of sample concentrated with SPIONs: dense bacterial lawn
Staphylococcus aureus
  Staphylococcus aureus after separation: 27 CFU/ml
  CFU of re-plated bacteria loaded particles: in the range of the positive control; also recorded: even increased
